Test results: PubChem BioAssay (NCI)
Values joined by “and” are separate entries in the source; they are usually repeats but may differ in a detail not shown here. Equal entries are not always repeated.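 Tested at 5 concentrations; 48 h exposure; 96-well plates; endpoints linearly interpolated, else capped at highest concentration. GI50: concentration for 50% inhibition of growth. At the TGI there is no net growth.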

What was measured:
Assay in all cases: NCI-60 cell line screen, 48 h
HL-60(TB) leukemia = test system: HL-60(TB) leukemia
NCI-H522 lung = test system: NCI-H522 lung
RXF 393 renal = test system: RXF 393 renal
NCI-H23 lung = test system: NCI-H23 lung
MALME-3M melanoma = test system: MALME-3M melanoma
CAKI-1 renal = test system: CAKI-1 renal
A498 renal = test system: A498 renal
HCT-116 colon = test system: HCT-116 colon
SNB-75 CNS = test system: SNB-75 CNS
SF-539 CNS = test system: SF-539 CNS

Row | Structure (SMILES) | TGI (HL-60(TB) leukemia) | TGI (NCI-H522 lung) | TGI (RXF 393 renal) | TGI (NCI-H23 lung) | TGI (MALME-3M melanoma) | TGI (CAKI-1 renal) | TGI (A498 renal) | TGI (HCT-116 colon) | TGI (SNB-75 CNS) | TGI (SF-539 CNS) | GI50 (HL-60(TB) leukemia) | GI50 (NCI-H522 lung) | GI50 (RXF 393 renal) | GI50 (NCI-H23 lung) | GI50 (MALME-3M melanoma) | GI50 (CAKI-1 renal) | GI50 (A498 renal) | GI50 (SNB-75 CNS) | GI50 (SF-539 CNS) | GI50 (HCT-116 colon)
1 | COC(=O)C(C(=O)C(=O)Nc1ccc([N+](=O)[O-])cc1)c1nc2cc(C)c(C)cc2[nH]c1=O (configuration not stated) | > 100 µM | > 100 µM | > 100 µM | > 100 µM | > 100 µM | > 100 µM | > 100 µM | > 100 µM | > 100 µM | > 100 µM |  |  |  |  |  |  |  |  |  | 
2 | N=C(N)c1ccc(-c2ccc(-c3ccc(Cl)c(Cl)c3)o2)nc1 | 5.09 µM | 4.36 µM | 3.58 µM | 4.59 µM | 3.42 µM | 2.85 µM | 28.5 µM |  | 2.69 µM | 3.04 µM | 2.24 µM | 1.86 µM | 1.65 µM | 2.02 µM | 1.78 µM | 1.47 µM | 9.98 µM | 1.35 µM | 1.63 µM | 
3 | O=C(Nc1ccc(Cl)cc1F)c1cc(Cl)ccc1O | 1.96 µM |  | 4.73 µM | 1.91 µM | 1.17 µM | 2.52 µM | 0.924 µM | 2.24 µM | 3.77 µM | 4.58 µM | 0.389 µM | 0.337 µM | 0.437 µM | 0.294 µM | 0.256 µM | 0.298 µM | 0.26 µM | 0.456 µM | 0.432 µM | 0.431 µM
4 | CC(=O)OC1CC(C)c2c(Cl)ncnc21 (configuration not stated) | > 100 µM | 41.7 µM | > 100 µM | > 100 µM | > 100 µM | > 100 µM | > 100 µM | > 100 µM | > 100 µM | > 100 µM | > 100 µM | 18 µM | > 100 µM | > 100 µM | > 100 µM | 45.7 µM | > 100 µM | > 100 µM | > 100 µM | > 100 µM
5 | NCC(=O)NC(CO)C(=O)O (configuration not stated) | > 100 µM | > 100 µM | > 100 µM | > 100 µM | > 100 µM | > 100 µM | > 100 µM | > 100 µM | > 100 µM | > 100 µM |  |  |  |  |  |  |  |  |  | 
6 | C/C=C/C=C\C(=O)C1c2cccc(O)c2C(=O)c2c(O)cc(C)cc21 (configuration not stated) | 7.04 µM | 3.06 µM | 2.81 µM | 3.65 µM | 3.12 µM | 4.34 µM | 7.76 µM | 2.92 µM | 2.74 µM | 1.52 µM |  |  |  |  |  |  |  |  |  | 
7 | Cc1ccc(C(CC(=O)c2ccccc2)C(C(=O)c2ccccc2)C(c2ccc(C)cc2)C2C(=O)NC(=S)NC2=O)cc1 (configuration not stated) | > 50 µM | 30.2 µM | > 50 µM | > 50 µM | > 50 µM | 35 µM | > 50 µM | > 50 µM | > 50 µM | > 50 µM | 18.7 µM | 7.87 µM | 30.3 µM | 15.1 µM | 15.1 µM | 7.7 µM | 18.3 µM | > 50 µM | 28.9 µM | 19 µM
8 | O=c1[nH]c(=O)n(C2OC(CO)C(O)C2O)cc1OCc1ccccc1 (configuration not stated) | > 68.6 µM | > 100 µM | > 83.5 µM | > 100 µM | > 100 µM | > 100 µM | > 100 µM | > 83.2 µM | > 100 µM | > 100 µM |  |  |  |  |  |  |  |  |  | 
9 | Nc1nc(Cl)nc2c1ncn2C1CCC(COP(=O)(O)OP(=O)(O)OP(=O)(O)O)O1 (configuration not stated) | 63.7 µM | > 100 µM | 75 µM | 41.6 µM | > 100 µM | > 100 µM | > 100 µM | > 100 µM | 94.2 µM | > 100 µM |  |  |  |  |  |  |  |  |  | 
10 | CCC[CH2][Ge]([CH2]CCC)([CH2]CCC)[O]C(=O)C(OC(C)=O)c1ccccc1 (configuration not stated) | 2.09 µM | 8.88 µM | 1.44 µM | 6.24 µM | 19.4 µM | 47.4 µM | 24.3 µM | 13.4 µM | 25.2 µM | 22.3 µM | 0.314 µM | 0.304 µM | 0.102 µM | 0.0395 µM | 1.16 µM | 13.7 µM | 11.4 µM | 0.973 µM | 7.63 µM | 0.139 µM
11 | O=C(c1ccncc1)N1CCN(C2=NS(=O)(=O)c3ccccc3N2c2ccccc2)CC1 | > 100 µM | 67 µM | 40.5 µM | 41.6 µM | 51.8 µM | 88.5 µM | 36.9 µM | 33.3 µM | 53.2 µM | 22.8 µM | 17.1 µM | 5.98 µM | 18.5 µM | 7.43 µM | 23.6 µM | 30.3 µM | 19.7 µM | 15.5 µM | 3.85 µM | 14.5 µM
12 | O=C1c2ccccc2CCC1(Br)Br | 5.22 µM | 0.793 µM | 3.32 µM | 4.9 µM | 2.75 µM | 3.04 µM | 20.9 µM | 2.23 µM | 16.2 µM | 3.74 µM | 2.04 µM | 0.293 µM | 1.68 µM | 1.99 µM | 1.06 µM | 1.65 µM | 7.69 µM | 3.23 µM | 1.88 µM | 0.888 µM
13 | COc1ccc(CCN2COc3ccc4ccc(=O)oc4c3C2)cc1OC | 41.7 µM | > 100 µM | > 100 µM | > 100 µM | > 100 µM | > 100 µM | > 100 µM | > 100 µM | > 100 µM | > 100 µM |  |  |  |  |  |  |  |  |  | 
14 | COc1cccc2cc(-c3nc(C4CCC(C(=O)O)CC4)n4ncnc(N)c34)[nH]c12 (configuration not stated) | 25.7 µM and > 10 µM | 1.92 µM and > 8.47 µM | 0.954 µM and 3.27 µM | 18.4 µM and > 10 µM | 0.354 µM and 0.675 µM | 2.79 µM and 3.99 µM | 0.407 µM and 0.365 µM | > 100 µM | 1.03 µM and 1.3 µM | 2.71 µM and 4.09 µM | 3.13 µM and > 3.55 µM | 0.0712 µM and 0.209 µM | 0.186 µM and 0.299 µM | 0.634 µM and 0.734 µM | 0.0296 µM and 0.0752 µM | 0.33 µM and 0.326 µM | 0.0677 µM and 0.0601 µM | 0.0952 µM and 0.152 µM | 0.309 µM and 0.516 µM | 0.824 µM and 1.08 µM
15 | Cc1ccc2nc(CC(=O)c3ccc4ccccc4c3)c(=O)[nH]c2c1 | > 100 µM | > 100 µM | > 100 µM | > 100 µM | > 100 µM | > 100 µM | > 100 µM | > 100 µM | > 100 µM | > 100 µM |  |  |  |  |  |  |  |  |  | 
16 | N#CC(C(=O)C(=O)Nc1ccc(Cl)c(Cl)c1)c1ccc(Cl)cc1 (configuration not stated) | > 100 µM | 65.5 µM | > 100 µM | > 100 µM | > 100 µM | > 100 µM | > 100 µM | 49.8 µM | > 100 µM | > 100 µM |  |  |  |  |  |  |  |  |  | 
